Assays:
Experiment in all cases: In vitro MMP inhibition analysis (fluorogenic peptide substrate cleavage), Ki
Assay type in all cases: biochemical
Conditions in all cases: Table 1
Human recombinant MMP-9 = molecular target: T1, Human recombinant MMP-9 (Homo sapiens, UniProt P14780)
T1 construct: made in house; host or cells: MMP-9-transfected HT1080 cells (spent media)
Description: (§1) Several compounds and salts were analyzed in an in vitro assay to determine their ability to inhibit the MMP cleavage of peptide substrates. Inhibition constant (Ki) were calculated from the assayed compound-MMP interactions.
(§2) Human recombinant MMP-1, MMP-2, MMP-9, MMP-13, and MMP-14 were used in this assay. All enzymes were prepared in Assignee's laboratories following usual laboratory procedures. Protocols for the preparation and use of these enzymes are available in the scientific literature. See, e.g., Enzyme Nomenclature (Academic Press, San Diego, Calif., 1992) (and the citations therein). See also, Frije et al., J. Biol. Chem., 26(24), 16766-73 (1994).
The MMP-9 proenzyme was purified by gelatin Sepharose chromatography from spent media of MMP-9-transfected HT1080 cells provided by Dr. Howard Welgus of Washington University (St. Louis, Mo.).
(§3) All MMPs were activated using 4-aminophenylmercuric acetate (“APMA”, Sigma Chemical, St. Louis, Mo.) or trypsin. MMP-9 also was activated using human recombinant MMP-3 (purified in Assignee's laboratory following standard cloning and purification techniques).
(§4) The following fluorogenic, methoxycoumarin-containing polypeptide substrate (I) was used in the MMP inhibition assays: MCA-ArgProLeuGlyLeuDpaAlaArgGluArgNH2 (I) “MCA” is 7-methoxycoumarin-4-yl acetyl. Substrate (I) was prepared Assignee's laboratory. In the absence of MMP inhibitory activity, the substrate is cleaved at the Gly-Leu peptide bond. This cleavage separates the highly fluorogenic peptide from the 2,4-dinitrophenyl quencher, thus resulting in increase of fluorescent intensity.
(§5) The stock solutions of the assayed compounds and salts were prepared in […] (DMSO). These stock solutions were diluted in Buffer A (100 mM Tris-HCl, 100 mM NaCl, 10 mM CaCl2, 0.05% polyoxyethylene 23 lauryl ether, pH 7.5) to obtain solutions with different compound concentrations, i.e., assay solutions with different concentrations of the assayed […] compound. The experiment controls contained the same amount of Buffer A/DMSO as the assayed sample, but contained none of the tested compound or salt.
(§6) The assays from which the Ki determinations were made were performed as follows. The assayed compound samples were incubated in separate wells of untreated white polystyrene plates (Nunc Nalgene International, Rochester, N.Y.), and analyzed on a Tecan SpectraFlour Plus plate reader. The excitation wavelength was 330 nm, and the emission wavelength—420 nm. All samples (assayed compounds and controls) were incubated in separate plate wells at room temperature for 1 hr in the presence of 4 μM of MMP substrate (I). In the absence of MMP inhibitory activity, substrate (I) was cleaved at the Gly-Leu bond resulting in an increase of relative fluorescence. Inhibition was observed as a reduced rate of this increase in relative fluorescence. […] This protocol is a modification of method by Knight et al., FEBS Lett., 296(3), 263-266 (1992). Apparent inhibitory constants were determined by non-linear regression of reaction velocity as a function of inhibitor and enzyme concentration using Morrison's equation, as described by Kuzmic, Anal. Biochem. 286, 45-50 (2000). Modifications were made in the non-linear regression method to allow a common control reaction rate and effective enzyme concentration to be shared between all dose-response relationships on a given assay plate. Since the substrate concentration was chosen to be at or below the Km, the apparent Ki's from this analysis were reported as Ki's without correction for the influence of substrate.
(§7) The above protocols were used to determine Ki constants for the compounds in Examples 2-35 above. All Ki values in Table 1 are given in nM units.

Human recombinant MMP-13 = molecular target: T2, Human recombinant MMP-13 (Homo sapiens, UniProt P45452)
T2 construct: made in house; host or cells: baculovirus / insect cells
Description: as §1, §2
The MMP-13 was obtained as a proenzyme from a full-length cDNA clone using baculovirus, as described by V. A. Luckow, “Insect Cell Expression Technology,” Protein Engineering: Principles and Practice, pp. 183-218 (edited by J. L. Cleland et al., Wiley-Liss, Inc., 1996). The expressed proenzyme was first purified over a heparin agarose column, and then over a chelating zinc chloride column. The proenzyme was then activated by APMA for use in the assay. Further details on baculovirus expression systems may be found in, for example, Luckow et al., J. Virol., 67, 4566-79 (1993). See also, O'Reilly et al, Baculovirus Expression Vectors: A Laboratory Manual (W.H. Freeman and Co., New York, N.Y., 1992). See also, King et al., The Baculovirus Expression System: A Laboratory Guide (Chapman & Hall, London, England, 1992).
as §3, §4, §5
as §6, with “Modifications were made in the non-linear regression method to allow a common control reaction rate and effective enzyme concentration to be shared between all dose-response relationships on a given assay plate. Since the substrate concentration was chosen to be at or below the Km, the apparent Ki's from this analysis were reported as Ki's without correction for the influence of substrate.” left out

Human recombinant MMP-14 = molecular target: T3, Human recombinant MMP-14 (Homo sapiens, UniProt P50281)
T3 construct: The catalytic domain enzyme was expressed in E. coli inclusion bodies, solubilized in urea; made in house
Description: as §1, §2
The MMP-14 full length cDNA was provided by Dr. Gregory Goldberg of Washington University (St. Louis, Mo.). The catalytic domain enzyme was expressed in E. coli inclusion bodies, solubilized in urea, purified on a preparative […] reverse phase HPLC column, and then refolded in the presence of zinc acetate and purified for use.
as §3, §4, §5, §6, §7

T1 sequence (P14780 107-707 limits assumed): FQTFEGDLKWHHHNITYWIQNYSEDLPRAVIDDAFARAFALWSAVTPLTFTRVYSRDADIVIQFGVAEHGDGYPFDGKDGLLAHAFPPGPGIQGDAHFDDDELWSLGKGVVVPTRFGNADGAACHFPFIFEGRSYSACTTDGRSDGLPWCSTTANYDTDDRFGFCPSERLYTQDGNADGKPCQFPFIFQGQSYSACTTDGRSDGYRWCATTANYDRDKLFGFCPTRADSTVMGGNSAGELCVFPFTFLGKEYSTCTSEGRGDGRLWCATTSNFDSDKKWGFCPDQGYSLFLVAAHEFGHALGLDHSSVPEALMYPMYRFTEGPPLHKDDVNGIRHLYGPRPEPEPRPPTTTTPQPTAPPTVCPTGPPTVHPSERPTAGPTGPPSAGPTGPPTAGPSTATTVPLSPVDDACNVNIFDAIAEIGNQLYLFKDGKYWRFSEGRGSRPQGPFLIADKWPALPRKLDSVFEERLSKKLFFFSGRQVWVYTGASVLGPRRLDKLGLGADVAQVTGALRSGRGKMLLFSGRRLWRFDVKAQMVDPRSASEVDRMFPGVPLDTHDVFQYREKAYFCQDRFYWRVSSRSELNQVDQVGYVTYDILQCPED

Compound | Ki (Human recombinant MMP-9) [nM] | Ki (Human recombinant MMP-13) [nM] | Ki (Human recombinant MMP-14) [nM]
O=C(NO)C1(S(=O)(=O)c2ccc(-c3ccc(CCC(F)(F)C(F)(F)F)cn3)cc2)CCOCC1 [Example 36] | 0.258 | 0.0403 | 523
CCOCCOc1ccc(-c2ccc(S(=O)(=O)C3(C(=O)NO)CCOCC3)cc2)cc1 [Example 37] | 3.51 | 0.028 | 632
O=C(NO)C1(S(=O)(=O)c2ccc(-c3ccc(OC(F)(F)C(F)F)cc3)cc2)CCN(CCl)CC1 [Example 38] | 0.126 | 0.02 | 446
COCCN1CCC(C(=O)NO)(S(=O)(=O)c2ccc(-c3ccc(OC(F)(F)C(F)F)cc3)cc2)CC1 [Example 39] | 0.045 | 0.011 | 185
O=C(NO)C1(S(=O)(=O)c2ccc(-c3ccc(OC(F)(F)C(F)F)cc3)cc2)CCN(C2CC2)CC1 [Example 40] | 0.102 | 0.066 | 292
O=C(NO)C1(S(=O)(=O)c2ccc(-c3ccc(CCC(F)(F)C(F)(F)F)cc3)cc2)CCOCC1 [Example 41] | 0.937 | 0.224 | 1140
O=C(NO)C1(S(=O)(=O)c2ccc(-c3ccc(CCCC(F)(F)F)cc3)cc2)CCOCC1 [Example 42] | 0.642 | 0.072 | 800
COCCN1CCC(C(=O)NO)(S(=O)(=O)c2ccc(-c3ccc(CCCC(F)(F)F)cc3)cc2)CC1 [Example 43] | 0.43 | 0.06 | 1590
O=C(NO)C1(S(=O)(=O)c2ccc(-c3ccc(CCCC(F)(F)F)cc3)cc2)CCN(C2CC2)CC1 [Example 44] | 0.68 | 0.13 | 2160
O=C(NO)C1(S(=O)(=O)c2ccc(-c3ccc(CCC(F)(F)C(F)(F)F)cc3)cc2)CCN(C2CC2)CC1 [Example 45] | 1.16 | 0.46 | 1730
COCCN1CCC(C(=O)NO)(S(=O)(=O)c2ccc(-c3ccc(CCC(F)(F)C(F)(F)F)cc3)cc2)CC1 [Example 46] | 0.38 | 0.11 | 1860
COCCC(C(=O)NO)S(=O)(=O)c1ccc(-c2ccc(CCCC(F)(F)F)cc2)cc1 (stereo not drawn) [Example 47] | 2.8 | 0.4 | 5260
CC(C)(C)N1CCC(C(=O)NO)(S(=O)(=O)c2ccc(-c3ccc(CCCC(F)(F)F)cc3)cc2)CC1 [Example 48] | 3.54 | 0.221 | 8450
O=C(NO)C1(S(=O)(=O)c2ccc(-c3cnc(CCC4CC4)cn3)cc2)CCOCC1 [Example 49] | 0.88 | 0.71 | 3620
O=C(NO)C1(S(=O)(=O)c2ccc(-c3ccc(CCC(F)(F)C(F)(F)F)cn3)cc2)CCN(C2CC2)CC1 [Example 50] | 0.22 | 0.12 | 1190
O=C(NO)C1(S(=O)(=O)c2ccc(-c3ccc(CCCC(F)(F)F)cn3)cc2)CCN(C2CC2)CC1 [Example 51] | 0.22 | 0.05 | 1890
CCN1CCC(C(=O)NO)(S(=O)(=O)c2ccc(-c3ccc(CCC(F)(F)C(F)(F)F)cn3)cc2)CC1 [Example 52] | 0.58 | 0.07 | 2580
CCN1CCC(C(=O)NO)(S(=O)(=O)c2ccc(-c3ccc(CCCC(F)(F)F)cn3)cc2)CC1 [Example 53] | 1 | 0.06 | 3960
COCCN1CCC(C(=O)NO)(S(=O)(=O)c2ccc(-c3ccc(CCCC(F)(F)F)cn3)cc2)CC1 [Example 54] | 0.25 | 0.3 | 1110
O=C(NO)C1(S(=O)(=O)c2ccc(-c3cnc(CCC(F)(F)C(F)(F)F)cn3)cc2)CCOCC1 [Example 55] | 0.347 | 0.222 | 2560
O=C(NO)C1(S(=O)(=O)c2ccc(-c3ccc(CCCC(F)F)cc3)cc2)CCOCC1 [Example 57] | 0.38 | 0.04 | 453
O=C(NO)C1(S(=O)(=O)c2ccc(-c3cnc(CCCC(F)(F)F)cn3)cc2)CCOCC1 [Example 58] | 1.67 | 0.45 | > 10000

From US20060074243A1, “Hydroxamic acid and amide compounds and their use as protease inhibitors” (Pharmacia Corporation, priority 2002, published 2006)
